Values quoted from earlier work as cited in US8598236B2, “Emulsion system derived from engkabang fat esters” (Universiti Putra Malaysia, priority 2009, dated 2013).

Conditions: purchased nonionic surfactants

Substance	HLB value
Sorbitan mono-oleate [Span80]	4.3
polyoxyethylene (20) sorbitan tri-oleate [Tween85]	11.0
sorbitan monolaurate [Span20]	8.6
